Calls of active or inactive are those of the source. Rule as the data show it, for most assays here: actives have a measured EC50 and inactives only a lower limit.

This is an account of results in ChEMBL document CHEMBL1201862, “PubChem BioAssay data set” (2004).

The target of assay [1] is FAD-linked sulfhydryl oxidase ALR (Homo sapiens, UniProt P55789). Put plainly: ALR-catalysed DTT oxidation blockers – biochemical, H2O2 detection, luminescence, cherry-pick, dose response (AID 493248).
A short description of assay [2]: NIH-3T3 fibroblast cytotoxicity, dose response, cytotoxicity control, cell-based, fluorescence, Alamar Blue, secondary assay (AID 2327).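 Also: NIH-3T3 mouse fibroblasts cultured with fluconazole at 8 µg/mL.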 Format: functional. (Alamar Blue is a resazurin reagent that responds to reducing activity.)
Assay [3] can be described thus: fluconazole-exposed Candida albicans growth modulators – fluorescence, retest, confirmation (AID 2467). The format is functional, cell-based.
For another assay, the system named is Streptococcus. Kind of assay: GAS UMAA2166 growth inhibition – luminescence, BacTiterGlo, counter-screen for streptokinase expression inhibitor project, dose response (AID 1915).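 Also: potency for reduction of bacterial viability or growth.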 The format is functional, organism-based. (The purpose of a counterscreen is to sort out artefacts and off-target activity.)
Assay [4] concerns Streptococcus sp. 'group A'. Kind of assay: Streptococcus pyogenes SK(-)GAS viability under kanamycin – luminescence, BacTiterGlo, confirmation, counter-screen for streptokinase expression inhibitor project, dose response (AID 1900). Format: functional, organism-based.
For another assay, the target named is T1, Streptokinase A (Streptococcus pyogenes serotype M1, UniProt P10520).
T1 sequence (P10520 whole entry): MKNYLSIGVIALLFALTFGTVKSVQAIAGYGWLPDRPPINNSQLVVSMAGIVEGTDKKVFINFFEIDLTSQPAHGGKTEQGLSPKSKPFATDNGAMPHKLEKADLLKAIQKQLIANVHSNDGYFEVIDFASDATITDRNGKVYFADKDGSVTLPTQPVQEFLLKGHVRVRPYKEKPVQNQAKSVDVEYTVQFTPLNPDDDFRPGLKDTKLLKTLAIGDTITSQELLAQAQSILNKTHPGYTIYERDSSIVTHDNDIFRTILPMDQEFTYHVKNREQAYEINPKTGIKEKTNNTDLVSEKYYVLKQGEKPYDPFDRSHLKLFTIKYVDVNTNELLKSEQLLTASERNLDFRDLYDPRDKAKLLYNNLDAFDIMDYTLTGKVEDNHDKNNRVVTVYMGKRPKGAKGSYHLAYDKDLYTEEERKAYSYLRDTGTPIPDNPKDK
Put plainly: viability-normalized secreted streptokinase activity reduction – plasminogen activation absorbance, OD405, dose response (AID 1914).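 Also: secreted streptokinase activity via plasminogen activation per viability signal from cell pellet.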 Format: functional, Streptococcus pyogenes M1 GAS.

The subject of a further assay is H4. Kind of assay: Luminescence Cell-Based Dose Response HTS to Identify Activators of 5'UTR Stem-Loop Driven Prion Protein mRNA Translation in H4 Neuroglioblastoma Cells. [Related pubchem assays: 1829 (Project Summary), 1814 (Primary HTS)]. Format: functional. The settings on record: Homo sapiens.
Assay [5] in a line: Luminescence Cell-Based Dose Response HTS to Identify Activators of Luciferase Translation or Activity in H4 […] Cells. [Related pubchem assays: 1829 (Project Summary), 1814 (Primary HTS)]. The format is functional.
Assay [6] is described as follows: Luminescence Cell-Based Dose Confirmation HTS to Identify Activators of 5'UTR Stem-Loop Driven Alpha-Synuclein mRNA Translation in H4 Neuroglioblastoma Cells. [Related pubchem assays: 1829 (Project Summary), 1814 (Primary HTS)]. The format is functional.
For assay [7], the target named is T2, Heat shock factor protein 1 (Mus musculus, UniProt P38532).
T2 sequence (P38532 whole entry): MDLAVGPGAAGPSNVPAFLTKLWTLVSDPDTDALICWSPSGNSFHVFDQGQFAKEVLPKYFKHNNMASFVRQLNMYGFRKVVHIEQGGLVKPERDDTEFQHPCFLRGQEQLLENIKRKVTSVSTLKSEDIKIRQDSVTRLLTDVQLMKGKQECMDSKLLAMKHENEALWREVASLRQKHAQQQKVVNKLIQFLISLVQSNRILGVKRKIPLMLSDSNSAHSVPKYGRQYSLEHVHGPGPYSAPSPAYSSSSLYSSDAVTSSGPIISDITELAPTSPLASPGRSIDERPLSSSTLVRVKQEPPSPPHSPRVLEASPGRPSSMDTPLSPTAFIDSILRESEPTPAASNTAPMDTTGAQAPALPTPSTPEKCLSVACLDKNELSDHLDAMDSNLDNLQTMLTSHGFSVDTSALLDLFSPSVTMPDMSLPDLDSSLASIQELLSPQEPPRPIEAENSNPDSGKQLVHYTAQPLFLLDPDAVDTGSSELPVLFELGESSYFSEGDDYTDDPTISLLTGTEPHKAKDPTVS
Kind of assay: decrease of HSF1-responsive luciferase luminescence – cell-based, NIH3T3, dose retest, confirmation (AID 2382).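 Also: NIH3T3 fibroblasts with HSF1-driven luciferase reporter stressed by proteasome inhibitor MG132; luminescence from HSF1-driven luciferase expression after 8 hours of MG132 stress.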 The format is functional.

A further assay in a line: cells. Format: functional.
The nature of assay [8]: Luminescence Cell-Based Dose Retest to Confirm Inhibitors of Cancer Stem Cells. [Related pubchem assays (depositor defined):AID2717, AID2721]. Format: functional. As to conditions: Homo sapiens.

FAD-linked sulfhydryl oxidase ALR, sequence (P55789 whole entry): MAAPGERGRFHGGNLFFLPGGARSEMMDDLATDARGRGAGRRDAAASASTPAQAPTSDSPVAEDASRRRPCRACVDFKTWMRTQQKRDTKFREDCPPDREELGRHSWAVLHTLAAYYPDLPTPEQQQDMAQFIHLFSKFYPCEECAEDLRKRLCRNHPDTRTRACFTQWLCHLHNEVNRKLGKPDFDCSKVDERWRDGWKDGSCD

Take `Cc1ccc(-n2c(-c3ccc(Cl)cc3)n[nH]c2=S)c(C)c1`: the concentration at half-maximal activity (AC50) (usually the concentration giving half of the maximal activity seen) in assay [1] was 2.08 µM (active).

For `CC(=O)NCCc1c(C)n(Cc2ccccc2)c2ccccc12`, the concentration at half-maximal activity (AC50) in [1] is 3.02 µM (active).

Take `O=C(NC1CCCCC1)C(c1ccc2ncccc2c1)N(Cc1ccc(F)cc1)C(=O)c1ccc2c(c1)OCCO2` (stereo unspecified): the results for the EC50 in assay [2] and in assay [3] were > 150 µM (inconclusive) and > 38 µM (not active), respectively.

As to `O=C(NC(=S)Nc1ccc(Cl)cn1)C(c1ccccc1)c1ccccc1`, the concentration giving a half-maximal response (EC50) (in general, the midpoint of the concentration-response curve) is 6.57 µM (active) with Streptococcus, 3.85 µM (active) in assay [4] and > 150 µM (not active) on Streptokinase A.

On to `Cc1cc(C(=O)CSc2nnc(-c3cccnc3)n2-c2ccccc2)c(C)n1CC1CCCO1` (stereo unspecified), for which the values for the half-maximal effective concentration (EC50) (in the assay on H4; in [5]; in assay [6]) were > 60 µM (not active), 18.7 µM (active) and 8.04 µM (active), respectively.

On to `N#Cc1ccc(-c2nc3cc(Cl)ccc3c(=O)n2O)cc1`, for which the half-maximal effective concentration (EC50) in assay [2] is > 160 µM (inconclusive); in [3] it was 1.63 µM (active).

`CCOC(=O)c1nnn(CC(=O)NC(=O)Nc2ccc(F)cc2)c1C(=O)OCC`: the half-maximal effective concentration (EC50) in [7] was > 195 µM (not active).

With `Cc1occc1C(=O)Nc1nnc(C(F)(F)F)s1`, the EC50 in assay [2] was > 150 µM (inconclusive); in [3], 1.95 µM (active).

Take `COc1ccc(C(=O)Nc2cccc(-c3ccc(N4CCOCC4)nn3)c2)cc1`: the EC50 (with Streptococcus; in assay [4]; at Streptokinase A) was > 150 µM (not active) throughout.

`CCOC(=O)C1(Cc2cccc(OC)c2)CCCN(C(=O)CCN2CCCO2)C1` (stereo unspecified): the EC50 with H4 is 2 µM (active); in [5], 9.65 µM (active); in [6], 11.1 µM (active).

With `CC1CC(N(C(=O)c2ccco2)c2ccccc2)c2ccccc2N1` (stereo unspecified), in assay [1], the half-maximal activity concentration (AC50) was 0.465 µM (active).

As for `CCOc1ccc(N(CC(=O)NC2CCCCC2)C(=O)CCC(=O)Nc2nc(C)cs2)cc1`, in [7], the half-maximal effective concentration (EC50) is given as > 195 µM (not active).

`NC(=O)c1ccsc1NC(=O)CCS(=O)(=O)c1ccccc1`: the EC50 was > 150 µM (inactive) in assay [2] and > 38 µM (not active) in assay [3].

For `CCN(CCNC(=O)c1cccc(N2CCCC2=O)c1)c1ccccc1`, in assay [1], the AC50 is 0.508 µM (active).

Regarding `CCOc1ccc2ccccc2c1CNc1nnnn1CC`, the half-maximal effective concentration (EC50) in assay [7] is given as > 195 µM (not active).

Regarding `Cc1ccc(Oc2cc(C)nc(-c3ccccc3O)n2)cc1`, the 50% effective concentration (EC50) was 44 µM (inconclusive) in the assay on H4, 15 µM (active) in assay [5] and 12.9 µM (active) in assay [6].

Turning to `COc1ccc(OC(=O)c2cc3cc(Cl)ccc3oc2=O)cc1`, the concentration for half-maximal inhibition (IC50) (commonly the concentration that gives 50% inhibition) in “cells” is 7.33 µM (active).

As to `CCCCNC(=O)C1CCN(Cc2ccc(OCc3ccccc3)cc2)CC1`, the EC50 was 63.1 µM (active) with H4, 70.9 µM (active) in [5] and 18.6 µM (active) in assay [6].

For the molecule `c1ccc2c(c1)CCN(c1nc3ccccc3n3cnnc13)C2`, the concentration for a half-maximal effect (EC50) was 29.1 µM (active) with H4, 26.4 µM (active) in assay [5] and 0.123 µM (active) in assay [6].

Take `Cc1ccc(S(=O)(=O)N(C)CC(=O)N2CC(C)OC(C)C2)cc1` (stereo unspecified): the EC50 (with Streptococcus; in assay [4]; at Streptokinase A) was > 150 µM (not active) each time.

For `CCOCCCNC(=O)c1cc(C)nn1-c1ccccc1`, in [7], the EC50 is listed as > 195 µM (not active).

In the case of `CCOc1ccccc1N1CCN(CC(O)COC2CCCc3ccccc32)CC1` (stereo unspecified), the EC50 in assay [2] is > 160 µM (inactive); in assay [3], 1.02 µM (active).

In the case of `COc1cc(-c2csc(CCn3nc(C)cc3C)n2)cc(OC)c1OC`, the concentration at half-maximal activity (AC50) in [1] is 0.059 µM (active).

As to `Cc1noc(/C=C/N(C)C)c1S(=O)(=O)N1CCN(c2ccc(F)cc2)CC1`, the EC50 in assay [7] is > 195 µM (not active).

With `CCC1(C)Cc2ccccc2-c2c1c(=O)n(Cc1ccccc1)c1nnnn21` (stereo unspecified), the EC50 in the assay on Streptococcus was > 150 µM (not active); at Streptokinase A, 4.04 µM (active).

Consider `O=C(c1ccccc1)N1CCN(c2ncnc3c(-c4ccccc4)nsc23)CC1`, for which the figures for the EC50 (in the assay on H4; in assay [5]; in [6]) were 17 µM (active), > 120 µM (not active) and 33.1 µM (active), respectively.

On to `CCCCn1c(N)nc2ccccc21`, for which, in [7], the EC50 was > 195 µM (not active).

As for `CCc1noc(C)c1C(=O)Nc1cc(Cl)ccc1N1CCCC1`, the concentration at half-maximal activity (AC50) in [1] is 1.15 µM (active).

Take `CCOC(=O)c1ccc(Nc2ncccc2[N+](=O)[O-])cc1`: the figures for the concentration giving a half-maximal response (EC50) (with H4; in assay [5]; in assay [6]) were 0.801 µM (active), 1.82 µM (active) and 0.12 µM (active), respectively.

Consider `COc1ccccc1-c1c[nH]nc1-c1ccc(OCc2ccc(F)cc2)cc1O`, for which the concentration giving a half-maximal response (EC50) is 24.5 µM (active) with Streptococcus, 7.62 µM (active) in assay [4] and 76.6 µM (active) on Streptokinase A.

With `CCOc1ccc(C(=O)Nc2nnc(C3=COCCO3)o2)cc1`, in “cells”, the half-inhibitory concentration (IC50) was 3.65 µM (active).

In the case of `Nc1nn2cc(-c3ccc(Br)cc3)nc2c2ccccc12`, the concentration giving a half-maximal response (EC50) in [2] is 109 µM (active); in the assay with H4 it was 2.38 µM (active); in assay [3], 1.24 µM (active); in assay [5], 0.177 µM (active).

As to `O=C(CCCc1c[nH]c2ccccc12)N1CCCCCC1`, the EC50 in the assay on H4 is 34.2 µM (active); in [5] it was 7.67 µM (active); in assay [6], 8.16 µM (active).

On to `O=C(Nc1ccc(-c2csc(Nc3ccc(Cl)cc3)n2)cc1)c1cc([N+](=O)[O-])cc(C(F)(F)F)c1`, for which the half-maximal activity concentration (AC50) in assay [8] is 1.32 µM (active). For the same molecule, the values for the half-maximal effective concentration (EC50) (in the assay on Streptococcus; in assay [4]; at Streptokinase A) were 7.28 µM (active), 8.5 µM (active) and > 150 µM (not active), respectively.

Turning to `COc1cccc(NC(=O)C(=O)N2CCOCC2)c1`, the concentration giving a half-maximal response (EC50) was 24.3 µM (active) with H4, 78.3 µM (active) in assay [5] and 4.35 µM (active) in assay [6].

Consider `Cc1ccc(NC(NC(=O)c2ccccn2)C(Cl)(Cl)Cl)cc1` (stereo unspecified), for which, in assay [1], the AC50 is 0.731 µM (active).

For `COc1ccc(/C=C/C(=O)NC(=S)NNC(=O)c2cc(OC)c(OC)c(OC)c2)cc1OC`, the EC50 is 17.8 µM (active) with Streptococcus, 3.3 µM (active) in assay [4] and > 150 µM (not active) at Streptokinase A.

For the molecule `CCNc1nc(NCC)nc(N/N=C/c2ccc(N(C)C)cc2)n1`, in assay [1], the AC50 was 2.33 µM (active).

For the molecule `Cc1ccc(-c2nn(-c3ccccc3)cc2/C=C2\SC(=S)N(CCCCCC(=O)O)C2=O)o1`, the concentration for a half-maximal effect (EC50) was 13.9 µM (active) in the assay with H4, 16 µM (active) in assay [5] and 12.6 µM (active) in [6].

Take `COc1ccc(NC(=O)c2cc3cccc(OC)c3o/c2=N\c2ccc(C(=O)O)cc2)cc1OC`: the 50% effective concentration (EC50) in the assay on Streptococcus is 20.2 µM (active); in assay [4] it was 2.38 µM (active); at Streptokinase A, > 150 µM (not active).

For `COc1ccc(/C=N/NC(=O)c2cc[nH]n2)cc1CSc1ccccn1`, the AC50 in assay [1] was 0.68 µM (active).

In the case of `O=C(N/N=C/c1cccc(O)c1)N/N=C/c1cccc(O)c1`, the concentration at half-maximal activity (AC50) in assay [1] was 0.797 µM (active).
